From patent publication US20240091226A1, “Forms and Formulations Of A Tyrosine Kinase Non-Receptor 1 (TNK1) Inhibitor” (Sumitomo Pharma Oncology, inc., priority 2021, published 2024)
Like-named read-outs stand apart in the source and are kept apart here.

How the values were obtained:
[1] = system: 10 cell lines from a variety of tumor types; experiment: Soft agar colony formation assay (3D colonies); assay type: cell-based; details: for IC50: 3D soft agar colonies
Procedure: (§1) In cancer research, natural cell characteristics and architectures can often be more closely mimicked by 3D cell models than monolayer cultures. The comparative efficacy of compound of structural formula I was explored in 2D and 3D culture systems using the soft agar colony formation assay and PDXO cultures. In each case, viability of the culture was assessed after treatment with compound of structural formula I.
(§2) Soft Agar Colony Formation Assay. Soft agar colony formation assay was performed in 10 cell lines from a variety of tumor types ranging from lung cancers to colorectal and prostate cancers (Pro Quinase Reaction Biology, Project Number: 17262). A complete list of tumor types used in the assay can be found in Table 7.1.

[2] = Four-week capsule stability: assay and related substances (HPLC); assay type: physicochemical; details: initial (not stored)
Procedure: Methods: Samples were stored (closed) at 40° C. and […] (RH). Appearance, water content, assay and related substances (HPLC) were tested (n=6), sink dissolution.

DU145 cells = experiment: Soft agar colony formation assay, 3D vs 2D; assay type: cell-based; details: for IC50: Homo sapiens, DU-145, DU145, Prostate
Procedure: as §1, §2

HT29 cells = experiment: Soft agar colony formation assay, 3D vs 2D; assay type: cell-based; details: for IC50: Homo sapiens, HT-29, HT29, Colorectal
Procedure: as §1, §2

A549 cells = experiment: Soft agar colony formation assay, 3D vs 2D; assay type: cell-based; details: for IC50: Homo sapiens, A549, Lung
Procedure: as §1, §2

[3] = system: 10 cell lines from a variety of tumor types; experiment: 2D culture viability (counterpart of soft agar assay); assay type: cell-based
Procedure: as §1, §2

Apc^Min+/− mice = experiment: ApcMin mouse efficacy model; assay type: in vivo
Procedure: TNK1 upregulation is reported to play a role in the pathogenic process of intestinal barrier disruption in a transgenic mice model of increased TNK1 expression/activation (PMID: 30320600). Therefore, the efficacy of the compound of structural formula I was evaluated in germline mutant mouse model of intestinal neoplasia and cachexia, Apc^Min+/− model, which is also known to induce gut barrier dysfunction (PMID: 21914473). Apc^Min+/− mice are reported to start the development of tumors at approximately 4 weeks of age. Twenty female Apc^Min+/− mice (JAX Stock No: 002020) were enrolled in the study at the age of 10 weeks. Randomization was done based on the body weight, and animals were divided into four treatment groups (5 mice/group). […] Celecoxib is a COX-2 inhibitor, and was used as a positive control because it has been reported to prevent and regress adenomas in APC model (PMID: 11016626). Mice were sacrificed 2 hours after the last dose of total 10 weeks of dosing (71 days), at the age of 20 weeks. After dosing started, the animals were checked daily for morbidity and mortality.

[4] = system: CR6863B organoid (Colorectal); experiment: PDXO viability assay (Cell Titre Glo); assay type: cell-based; details: 120 h, 5 days of treatment
Procedure: as §1
(§3) Viability Assay in Patient-Derived Xenograft Organoid Cell Lines (PDXO). To mimic more closely cancer tissue-like architecture, PDX organoids derived from patient-derived xenograft tissue were utilized. Viability assay was performed in 10 PDXO models, and the IC50 values were assessed after 5 days of treatment with compound of structural formula I using Cell Titre Glo.

[5] = system: BL5001B organoid (Bladder); experiment: PDXO viability assay (Cell Titre Glo); assay type: cell-based; details: 120 h, 5 days of treatment
Procedure: as §1, §3

[6] = system: CR1489B organoid (Colorectal); experiment: PDXO viability assay (Cell Titre Glo); assay type: cell-based; details: 120 h, 5 days of treatment
Procedure: as §1, §3

LU11873B organoid (Lung) = experiment: PDXO viability assay (Cell Titre Glo); assay type: cell-based; details: 120 h, 5 days of treatment
Procedure: as §1, §3

LU6800B organoid (Lung) = experiment: PDXO viability assay (Cell Titre Glo); assay type: cell-based; details: 120 h, 5 days of treatment
Procedure: as §1, §3

10 PDXO models = experiment: PDXO viability assay (Cell Titre Glo); assay type: cell-based; details: all of the organoids tested, except CR6863B
Procedure: as §1, §3

[7] = system: GA6891B organoid (Gastric); experiment: PDXO viability assay (Cell Titre Glo); assay type: cell-based; details: 120 h, 5 days of treatment
Procedure: as §1, §3

[8] = system: CR5088B organoid (Colorectal); experiment: PDXO viability assay (Cell Titre Glo); assay type: cell-based; details: 120 h, 5 days of treatment
Procedure: as §1, §3

LU0743B organoid (Lung) = experiment: PDXO viability assay (Cell Titre Glo); assay type: cell-based; details: 120 h, 5 days of treatment
Procedure: as §1, §3

[9] = system: ES6470B organoid (Esophageal); experiment: PDXO viability assay (Cell Titre Glo); assay type: cell-based; details: 120 h, 5 days of treatment
Procedure: as §1, §3

LU11693B organoid (Lung) = experiment: PDXO viability assay (Cell Titre Glo); assay type: cell-based; details: 120 h, 5 days of treatment
Procedure: as §1, §3

[10] = Homo sapiens, HCT-116, HCT116, Colorectal
[11] = 3D soft agar colonies, read-out: 3D IC50

IC50 ([1]; Homo sapiens, A2058, A2058, Melanoma): 980 nM | IC50 ([1]; Homo sapiens, C-33-A, C33A, Cervical): 900 nM | IC50 [1, 10]: 750 nM | IC50 ([1]; Homo sapiens, LoVo, Colorectal): 2900 nM | IC50 ([1]; Homo sapiens, SW948, SW948, Colorectal): 730 nM | IC50 ([1]; PC3, Prostate): 870 nM | IC50 ([1]; T84, Colorectal): 1500 nM | Related substance at RRT 0.84 [2]: <0.05% | Related substance at RRT 0.89 [2]: 0.15% | Related substance at RRT 0.97 [2]: 0.15% | Related substance at RRT 1.08 [2]: 0.11% | Related substance at RRT 1.13 [2]: <0.05% | Related substance at RRT 1.20 [2]: 0.09% | Related substance at RRT 1.21 [2]: 0.05% | Related substance at RRT 1.24 [2]: 0.08% | Related substance at RRT 1.29 [2]: <0.05% | Related substance at RRT 1.33 [2]: <0.05% | Total Impurities [2]: 0.63% | shift in IC50, 3D colonies vs 2D (DU145 cells; DU145): approximately 19 fold | IC50 (DU145 cells; 2D culture, read-out: 2D IC50): 2700 nM | IC50 (DU145 cells; [11]): 140 nM | shift in IC50, 3D colonies vs 2D (HT29 cells; HT29): approximately 32 fold | IC50 (HT29 cells; 2D culture, read-out: 2D IC50): 7680 nM | IC50 (HT29 cells; [11]): 240 nM | shift in IC50, 3D colonies vs 2D (A549 cells; A549): approximately 40 fold | IC50 (A549 cells; 2D culture, read-out: 2D IC50): > 10000 nM | IC50 (A549 cells; [11]): 250 nM
SMILES: COc1cc(N2CCN(C)CC2)c(Cl)cc1Nc1ncc(Cl)c(Nc2cccnc2N2CCCC2=O)n1 [compound of structural formula I, 1-(3-((5-chloro-2-((5-chloro-2-methoxy-4-(4-methylpiperazin-1-yl)phenyl)amino)pyrimidin-4-yl)amino)pyridin-2-yl)pyrrolidin-2-one]
sensitivity of 3D colonies compared to 2D counterparts (in words) ([1]; most of the cell lines tested): increased sensitivity | IC50 [3, 10]: 3360 nM | IC50 ([3]; Homo sapiens, Lovo, Colorectal): 3580 nM | IC50 ([3]; PC3, Prostate): > 10000 nM | reduction of spleen size compared to vehicle (Apc^Min+/− mice; 10 mg/kg): approximately 52% | reduction of spleen size compared to vehicle (Apc^Min+/− mice; 25 mg/kg): approximately 40% | decrease in number of polyps in the intestine compared to vehicle (Apc^Min+/− mice; 25 mg/kg once daily oral gavage, 10 weeks, female Apc^Min+/− mice): approximately 49% | mean spleen weight (Apc^Min+/− mice; 25 mpk): 191 mg | polyp growth (Apc^Min+/− mice; FIG. 8B): inhibits polyp growth | splenomegaly and inflammation (Apc^Min+/− mice; FIG. 8C): attenuated | IC50 [4]: 10100 nM | IC50 [5]: 400 nM | IC50 [6]: 2180 nM | IC50 (LU11873B organoid (Lung)): 440 nM | IC50 (LU6800B organoid (Lung)): 400 nM | IC50 (10 PDXO models): < 10000 nM | IC50 [7]: 1240 nM | IC50 [8]: 3250 nM | IC50 (LU0743B organoid (Lung)): 2430 nM | IC50 [9]: 510 nM | IC50 (LU11693B organoid (Lung)): 2120 nM
